IC50 data for one molecule are collected here from US12622912B2, “Application of pyrido[1,2-a]pyrimidinone analog” (GUANGZHOU JOYO PHARMATECH CO., LTD, priority 2021, dated 2026).

pIC50: −log10 of the molar value. Where two headings read alike, the source gives them in different places. Some results are limits rather than exact numbers.

Experiment [1] has as its system PIK3CA-mutated cervical cancer cells. The experiment in a line: CTG cell proliferation, cervical cancer cell lines. The experiment is classed as cell-based. The note with it: across PIK3CA-mutated cervical cancer cell lines, 72 hours, Alpelisib: in two cell lines, read-out: half inhibitory concentration. An excerpt:
(2) Reagents • 1) FBS (fetal bovine serum) (purchased from ExCell, product number: FND500); • 2) RPMI1640 medium (purchased from Hyclone, product number: SH30809.01); • 3) McCoy's 5A medium (purchased from Gibco, product number: 12330-031); • 4) MEM medium (purchased from Hyclone, product number: SH30024.01; • 5) MEM NEAA (purchased from Gibco, product number: 11140-050); • 6) Sodium pyruvate (purchased from Gibco). […]
Step 1: Cells in exponential growth phase were harvested, and viable cells were counted with a Vi-Cell XR cytometer. […]
(§1) Step 3: After 72 hours of drug treatment, 50 μL (½ culture volume) CTG solution that was melted and equilibrated to room temperature was added to each well according to the CTG operation instruction. […] After 10 minutes, the fluorescence signal value was measured with an Envision2104 plate reader.
(§2) Cell survival rate was calculated using the formula: Vsample/Vvehicle control×100%. Where, Vsample was the reading of the drug treatment group, and Vvehicle control was the average value of the solvent control group. GraphPad Prism 5.0 software was used, and a S-type dosage-survival rate curve was drawn using a nonlinear regression model and IC50 value was calculated.

For experiment [2], the target named is T1, human PI3K p110α (H1047R)/p85α (Homo sapiens, UniProt P42336, H1047R).
T1 construct: purchased Millipore 14-792
As to the kind of experiment: HTRF kinase activity assay, H1047R mutant. The experiment is classed as biochemical. How it is done:
Main reagents: human PI3K p110α/p85α (purchased from Promega, Cat. No. V1721), human PI3K p110α (E542K)/p85α (purchased from Millipore, Cat. No. 14-782), human PI3K p110α (E545K)/p85α (purchased from Millipore, Cat. No. 14-783) and human PI3K p110α (H1047R)/p85α (purchased from Millipore, Cat. No. 14-792)
1) Compound was prepared. The initial concentration of compound I was 100 nM, and was serially diluted 3-fold to 10 concentrations and transferred to the test plate.
2) Human PI3K p110α/p85α, human PI3K p110α (E542K)/p85α, human PI3K p110α (E545K)/p85α or human PI3K p110α (H1047R)/p85α and assay buffer (10 μM phosphatidylinositol 4,5-bisphosphate and Mg/ATP) were incubated. The reaction was initiated by adding ATP solution and incubated for 30 min.
3) After incubation for 30 minutes, the reaction was terminated by adding stop solution. The stop solution contained EDTA, biotinylated phosphatidylinositol-3,4,5-trisphosphate.
4) Detection buffer was added, europium-tagged anti-GST monoclonal antibody, GST-tagged GRP1 PH domain, and streptavidin allophycocyanin.
5) The plate was read and the HTRF value was calculated according to the formula HTRF=10000×(Em665 nm/Em620 nm). GraphPad Prism 5.0 software was used, and a S-type dosage-survival rate curve was drawn using a nonlinear regression model and IC50 value was calculated.

Experiment [3] deals with C-33A PIK3CA-mutated cervical cancer cell line. As to the kind of experiment: CTG cell proliferation, C-33A. The experiment is classed as cell-based. The settings on record: Homo sapiens, 72 hours, read-out: Absolute IC50.
From the text: (2) Reagents • 1) FBS (fetal bovine serum) (purchased from ExCell, product number: FND500); • 2) RPMI1640 medium (purchased from Hyclone, product number: SH30809.01); • 3) McCoy's 5A medium (purchased from Gibco, product number: 12330-031); • 4) MEM medium (purchased from Hyclone, product number: SH30024.01; • 5) MEM NEAA (purchased from Gibco, product number: 11140-050); • 6) Sodium pyruvate (purchased from Gibco). (3) Test Article and Positive Control Article • Test article: compound I; Positive Control Article: • 1) Alpelisib, molecular weight: 441.47; solvent: DMSO; storage condition after dissolution: −20° C.; supplier: Shanghai TOPSCIENCE Biochemical Technology Co., Ltd., CAS number: 1217486-61-7; • 2) Cisplatin, molecular weight: 300.05; solvent: PBS (phosphate buffer saline); storage condition: 2-8° C.; supplier: Qilu Pharmaceutical. (4) The CTG Method was Used to Determine the Cell Proliferation IC50 of the Compound
Step 1: Cells in exponential growth phase were harvested, and viable cells were counted with a Vi-Cell XR cytometer. The cell suspension was adjusted to an appropriate concentration with medium. 90 μL of cell suspension was added to each well of a 96-well cell culture plate, and the final cell concentration was 1500-6000 cells/well. […]
as §1, §2

The test system of experiment [4] is HEC-1-B PIK3CA-mutated endometrial cancer cell line. The experiment in a line: CTG cell proliferation, HEC-1-B. Type of experiment: cell-based. The settings on record: read-out: Absolute IC50. How it is done: (2) Reagents • 1) FBS (fetal bovine serum) (purchased from ExCell, product number: FND500); • 2) McCoy's 5A medium (purchased from Gibco, product number: 12330-031); • 3) MEM medium (purchased from Hyclone, product number: SH30024.01). (3) Test Article and Positive Control Article • Test article: compound I; • Positive control article: Alpelisib, molecular weight: 441.47; solvent: DMSO; storage condition after dissolution: −20° C.; supplier: Shanghai TOPSCIENCE Biochemical Technology Co., Ltd., CAS number: 1217486-61-7; (4) The CTG Method was Used to Determine the Cell Proliferation IC50 of the Compound
(§3) Step 1: Cells in exponential growth phase were harvested, and viable cells were counted with a Vi-Cell XR cytometer. The cell suspension was adjusted to an appropriate concentration with medium. 90 μL of cell suspension was added to each well of a 96-well cell culture plate, and the final cell concentration was 1500-6000 cells/well.
Step 2: The initial concentration of administration of compound I and the control drug Alpelisib was 3 μM, serially diluted 3-fold, a total of 9 concentration gradients and a DMSO control, the final concentration of DMSO in each well was 0.1%, placed in a 37° C., 5% CO2 incubator for 72 hours.
Step 3: After 72 hours of drug treatment, 50 μL (½ culture volume) CTG solution that was melted and equilibrated to room temperature was added to each well according to the CTG operation instruction. The solution was mixed well with a microplate shaker for 2 minutes, and placed at room temperature. After 10 minutes, the fluorescence signal value was measured with an Envision2104 plate reader.
as §2

The test system of experiment [5] is T47D PIK3CA-mutated breast cancer cell line. As to the kind of experiment: CTG cell proliferation, T47D. Type of experiment: cell-based. The note with it: 72 hours, read-out: Absolute IC50.
From the text: (2) Reagents • 1) FBS (fetal bovine serum) (purchased from ExCell, product number: FND500); • 2) DMEM medium (purchased from Gibco, product number: C11995500BT); • 3) Insulin (purchased from Gibco, product number: EPX010-12003-901); • 4) RPMI1640 medium (purchased from Hyclone, product number: SH30809.01); • 5) MEM medium (purchased from Hyclone, product number: SH30024.01). (3) Test Article and Positive Control Article • Test article: compound I; • Positive control article: Cisplatin, Molecular weight: 300.05; Solvent: PBS (phosphate buffer saline); Storage condition: 2-8° C.; Supplier: Qilu Pharmaceutical. (4) The CTG Method was Used to Determine the Cell Proliferation IC50 of the Compound.
as §3
Step 2: The initial concentration of administration of compound I was 3 μM, and the initial concentration of administration of the control drug Cisplatin was 100 μM, and serially diluted 3-fold, a total of 9 concentration gradients and a DMSO control, the final concentration of DMSO in each well was 0.1%, placed in a 37° C., 5% CO2 incubator for 72 hours.
as §1, §2

T1 sequence (P42336 whole entry H1047R): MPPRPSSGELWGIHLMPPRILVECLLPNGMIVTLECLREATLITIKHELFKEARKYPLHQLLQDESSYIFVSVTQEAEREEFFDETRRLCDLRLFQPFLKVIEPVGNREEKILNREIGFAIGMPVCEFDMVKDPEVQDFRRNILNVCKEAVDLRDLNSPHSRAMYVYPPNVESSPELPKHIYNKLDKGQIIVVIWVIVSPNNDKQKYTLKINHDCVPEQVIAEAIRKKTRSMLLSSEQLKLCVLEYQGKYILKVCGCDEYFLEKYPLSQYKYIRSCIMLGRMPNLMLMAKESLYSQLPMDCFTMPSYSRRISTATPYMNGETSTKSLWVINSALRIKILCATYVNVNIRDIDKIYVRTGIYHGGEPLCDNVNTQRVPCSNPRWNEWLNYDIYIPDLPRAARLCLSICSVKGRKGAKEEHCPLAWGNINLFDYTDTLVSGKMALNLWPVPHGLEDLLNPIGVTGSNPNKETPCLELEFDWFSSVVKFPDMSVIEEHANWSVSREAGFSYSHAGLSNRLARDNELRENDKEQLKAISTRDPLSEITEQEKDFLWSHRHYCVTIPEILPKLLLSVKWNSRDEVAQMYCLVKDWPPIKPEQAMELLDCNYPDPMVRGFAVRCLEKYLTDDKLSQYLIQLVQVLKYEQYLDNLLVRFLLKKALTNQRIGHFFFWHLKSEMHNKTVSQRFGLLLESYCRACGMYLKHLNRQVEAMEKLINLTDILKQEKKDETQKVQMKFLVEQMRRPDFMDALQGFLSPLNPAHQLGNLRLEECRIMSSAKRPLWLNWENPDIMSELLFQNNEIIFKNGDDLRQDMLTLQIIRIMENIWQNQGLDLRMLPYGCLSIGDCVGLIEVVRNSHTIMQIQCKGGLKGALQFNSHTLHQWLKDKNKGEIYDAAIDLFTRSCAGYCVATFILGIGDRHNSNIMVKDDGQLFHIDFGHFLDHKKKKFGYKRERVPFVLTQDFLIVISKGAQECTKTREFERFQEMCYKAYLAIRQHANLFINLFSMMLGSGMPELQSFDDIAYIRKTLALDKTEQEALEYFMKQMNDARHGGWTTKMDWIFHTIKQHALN
T1 sequence (P27986 whole entry partner): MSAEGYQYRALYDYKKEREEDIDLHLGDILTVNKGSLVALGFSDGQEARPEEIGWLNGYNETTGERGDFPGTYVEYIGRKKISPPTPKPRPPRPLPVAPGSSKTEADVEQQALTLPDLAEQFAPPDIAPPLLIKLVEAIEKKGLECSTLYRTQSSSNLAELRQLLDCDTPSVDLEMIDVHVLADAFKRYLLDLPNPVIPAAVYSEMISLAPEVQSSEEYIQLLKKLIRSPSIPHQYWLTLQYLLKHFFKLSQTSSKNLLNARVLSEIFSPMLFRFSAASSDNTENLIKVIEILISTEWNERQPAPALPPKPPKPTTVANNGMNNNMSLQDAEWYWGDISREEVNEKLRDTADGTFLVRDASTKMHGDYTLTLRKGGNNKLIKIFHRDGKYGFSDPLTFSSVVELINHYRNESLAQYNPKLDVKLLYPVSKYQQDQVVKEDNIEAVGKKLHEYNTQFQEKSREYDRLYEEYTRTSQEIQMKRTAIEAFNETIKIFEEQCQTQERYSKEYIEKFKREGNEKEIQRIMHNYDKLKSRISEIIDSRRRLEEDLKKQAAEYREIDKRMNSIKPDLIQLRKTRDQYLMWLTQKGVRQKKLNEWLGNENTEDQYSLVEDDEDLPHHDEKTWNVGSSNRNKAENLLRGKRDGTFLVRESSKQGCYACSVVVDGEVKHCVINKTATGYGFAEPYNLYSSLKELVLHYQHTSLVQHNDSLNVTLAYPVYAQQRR

On to `COCCOc1cnc2ccc(-c3cnc(OC)c(NS(=O)(=O)c4sc(C)nc4C)c3)cn2c1=O` [Compound I], for which the pIC50 in experiment [1] was 6.74 to 7.82; in experiment [2], 8.70; in experiment [3], 6.74; in experiment [4] (72 hours) it was 7.28; in experiment [4] (Homo sapiens, HEC-1B, 72 h) it was no less than 7.00; in experiment [5] (listed as compound I), greater than 6.00. The pIC50 in experiment [5] is 7.77.
